We go through twelve compounds from patent publication US11602534B2, “Pyrimidine derivative kinase inhibitors” (HEFEI INSTITUTES OF PHYSICAL SCIENCE, CHINESE ACADEMY OF …, priority 2017, dated 2023).

The subject of test [1] is P210-BaF3. In words: Proliferation of P210-BaF3 cells, CCK8 cell viability assay. It counts as cell-based. The note with it: Mus musculus, 72 hours, stably expressing BCR-ABL mutant activated kinase. A digest of the protocol: (§1)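 Murine BaF3 cells made IL-3-independent by retroviral transduction of human kinase domains fused to N-terminal TEL or TPR fragments; parental BaF3 included. Living cells quantified by CCK8 (dehydrogenase activity) read-out, giving GI50 in μM.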

The subject of test [2] is TEL-PDGFRβ-BaF3. In words: Proliferation of TEL-PDGFRβ-BaF3 cells, CCK8 cell viability assay. It counts as cell-based. The note with it: Mus musculus, 72 hours, stably expressing PDGFRβ kinase. A digest of the protocol:
(§2)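 GI50 (μM) from CCK8 read-out, which measures reductive dehydrogenase activity in living cells. Cells: parental mouse BaF3, or BaF3 stably expressing TEL-fused human cKIT, PDGFRα or PDGFRβ kinase domains and grown without IL-3, making them kinase-dependent.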
Background: Tetrazolium assays rely on reduction of a dye to a coloured formazan, in cell work by metabolically active cells.

For test [3], the system named is Tel-cKit/T670I-BaF3. The test can be described thus: Proliferation of Tel-cKit/T670I-BaF3 cells, CCK8 cell viability assay. It counts as cell-based. Conditions: Mus musculus, 72 hours, stably expressing cKIT/T670I. A digest of the protocol: as §2
The test system of test [4] is Tel-cKit-BaF3. In words: Proliferation of Tel-cKit-BaF3 cells, CCK8 cell viability assay. Conditions: for GI50: Mus musculus, 72 hours, CCK8, stably expressing cKIT kinase. The class given is cell-based, mouse. A digest of the protocol: as §2
Test [5] relates to Tel-FLT3-BaF3. The test can be described thus: Proliferation of Tel-FLT3-BaF3 cells, CCK8 cell viability assay. The note with it: Mus musculus, 72 hours, stably expressing FLT3 kinase. It counts as cell-based. A digest of the protocol:
as §1

In test [6] the test system is BaF3. The test can be described thus: Proliferation of BaF3 cells, CCK8 cell viability assay. The class given is cell-based. Conditions: Mus musculus, 72 hours. A digest of the protocol:
as §2

For test [7], the system named is FLT3-ITD-BaF3. The test can be described thus: Proliferation of FLT3-ITD-BaF3 cells, CCK8 cell viability assay. It counts as cell-based. Conditions: Mus musculus, 72 hours, stably expressing FLT3/ITD. A digest of the protocol: as §1
Test [8] deals with Tel-RET-BaF3. The test can be described thus: Proliferation of Tel-RET-BaF3 cells, CCK8 cell viability assay. It counts as cell-based. Conditions: Mus musculus, 72 hours, stably expressing RET kinase. The text has this: In this example the following cells were used: […] (purchased from ATCC), mouse P210-BaF3 (stably expressing BCR-ABL mutant activated kinase), mouse P210/T315I-BaF3 (stably expressing BCR-ABL/T315I mutant activated kinase), mouse FLT3-ITD-BaF3 (stably expressing FLT3/ITD mutant activated kinase), mouse TEL-FLT3-BaF3 (stably expressing FLT3 kinase), mouse TEL-cKIT-BaF3 (stably expressing cKIT kinase), mouse BaF3-tel/T670I-cKit (stably expressing cKIT/T670I mutant activated kinase), mouse Tel-VEGFR2-BaF3 (stably expressing VEGFR2 kinase), mouse Tel-PDGFRα-BaF3 (stably expressing PDGFRα kinase), mouse Tel-PDGFRβ-BaF3 (stably expressing PDGFRβ kinase), mouse Tel-RET-BaF3 (stably expressing RET kinase). The above cell lines were all constructed by our laboratory according to the following method: the kinase region sequences of human P210, P210/T315I, FLT3/ITD, FLT3, cKIT, cKIT/T670I, VEGFR2, PDGFRα, PDGFRβ, RET were respectively amplified by PCR, and inserted into MSCV-Puro vectors having N-terminal TEL or TPR fragments (Clontech). The vectors were stably transfected into mouse BaF3 cells by means of retrovirus, and the growth factor IL-3 were removed, eventually obtaining cell lines that depend on transferred protein P210, P210/T315I, FLT3/ITD, FLT3, cKIT, cKIT/T670I, VEGFR2, PDGFRα, PDGFRβ, or RET.
GI50 (unit: μM) was calculated by quantifying the number of living cells based on quantitative measurement of reductive dehydrogenase in living cells with CCK8 cell viability assay kit (Bestbio, China).

Test [9] relates to TEL-PDGFRα-BaF3. In words: Proliferation of TEL-PDGFRα-BaF3 cells, CCK8 cell viability assay. It counts as cell-based. The note with it: Mus musculus, 72 hours, stably expressing PDGFRα kinase. A digest of the protocol: as §2
For test [10], the system named is TEL-VEGFR2-BaF3. In words: Proliferation of TEL-VEGFR2-BaF3 cells, CCK8 cell viability assay. It counts as cell-based. The note with it: Mus musculus, 72 hours, stably expressing VEGFR2 kinase. A digest of the protocol:
as §1

Test [11] relates to P210/T315I-BaF3. The test can be described thus: Proliferation of P210/T315I-BaF3 cells, CCK8 cell viability assay. The note with it: Mus musculus, 72 hours, stably expressing BCR-ABL/T315I. It counts as cell-based. A digest of the protocol:
as §1

Each structure is given as a SMILES string. Counter-ions that a name gives are not always drawn. Some results are limits rather than exact numbers.

One may read the GI50 as the concentration that inhibits growth by half. Read a low GI50 as greater sensitivity of the cells. As to `CC(=O)Nc1cc(Oc2ccc(NC(=O)Cc3ccccc3F)cc2)ncn1` [Example 25, N-[4-(6-acetylamino-pyrimidin-4-yloxy)-phenyl]-2-(2-fluoro-phenyl)-acetamide], the 50% growth inhibitory concentration (GI50) is > 10000 nM in test [1]; 73 nM in [2]; > 10000 nM in test [3]; > 10000 nM in test [4]; 1150 nM in [5]; > 10000 nM in test [6]. The GI50 in test [7] is 263 nM; in test [8], > 10000 nM; in test [9], 33 nM; in test [10], 2110 nM; in [11], 1040 nM.
For `Cc1ccc(NC(=O)NC2CCC(Oc3cc(NCCN)ncn3)CC2)cc1C(F)(F)F` (stereo not drawn) [Example 128, 1-{4-[6-(2-amino-ethylamino)-pyrimidin-4-yloxy]-cyclohexyl}-3-(4-methyl-3-trifluoromethyl-phenyl)-urea], the GI50 in test [1] was > 10000 nM; in test [2], 150 nM; in test [3], 641 nM; in [4], 8470 nM; in test [5] it was 150 nM; in test [6], > 10000 nM. Also, the GI50 in [7] is 87 nM; in test [8], 3870 nM; in test [9] it was 110 nM; in test [10] it was 1190 nM; in test [11], 8730 nM.
Consider `COCCNc1cc(Oc2ccc(NC(=O)Nc3ccc(C(F)(F)F)cc3)cc2)ncn1` [Example 73, 1-{4-[6-(2-methoxy-ethylamino)-pyrimidin-4-yloxy]-phenyl}-3-(4-trifluoromethyl-phenyl)-urea], for which the 50% growth inhibitory concentration (GI50) was > 10000 nM in test [1]; 154 nM in [2]; > 10000 nM in test [3]; 5680 nM in [4]; 1570 nM in test [5]; > 10000 nM in [6]. Further, the GI50 was 170 nM in test [7], > 10000 nM in [8], 165 nM in test [9] and > 10000 nM in test [11].
For `CC(=O)Nc1cc(Oc2ccc(NC(=O)Cc3c(Cl)cccc3Cl)cc2)ncn1` [Example 6, N-[4-(6-acetylamino-pyrimidin-4-yloxy)-phenyl]-2-(2,6-dichloro-phenyl)-acetamide], the GI50 in test [1] is > 10000 nM; in test [2], 346 nM; in [3], > 10000 nM; in test [4] it was > 10000 nM; in test [5] it was 663 nM; in test [6] it was > 10000 nM. In addition, the GI50 was 63 nM in [7], > 10000 nM in test [8], 59 nM in test [9] and 1930 nM in [10].
In the case of `CC(=O)Nc1cc(Oc2ccc(NC(=O)Cc3ccccc3I)cc2)ncn1` [Example 4, N-[4-(6-acetylamino-pyrimidin-4-yloxy)-phenyl]-2-(2-iodo-phenyl)-acetamide], the GI50 is > 10000 nM in [1]; 48 nM in test [2]; > 10000 nM in test [3]; > 10000 nM in test [4]; 667 nM in test [5]; > 10000 nM in [6]. Further, the GI50 in test [7] was 61 nM; in test [8], > 10000 nM; in test [9], 13 nM; in test [10] it was 734 nM.
As to `CNC(=O)c1cc(Oc2ccc(NC(=O)Nc3ccc(Cl)c(C(F)(F)F)c3)cc2)ccn1` [Sorafenib, reference compound], the GI50 in [1] came out at 3830 nM; in test [2] it was 35 nM; in [3], 112 nM; in [4], 58 nM; in test [5], 0.9 nM; in test [6], 6990 nM. In addition, the GI50 in test [7] was 0.3 nM; in [8], 365 nM; in test [9], 0.6 nM. For the same compound, the “inhibition of cKIT (in words)” value in test [4] (summary of Table 2) was “strongly inhibits”.
As for `Cc1ccc(NC(=O)Nc2ccc(Oc3cc(N4CCOC[C@H]4C)ncn3)cc2)cc1C(F)(F)F` [Example 114, (R)-1-(4-methyl-3-(trifluoromethyl)phenyl)-3-(4-((6-(3-methylmorpholino)pyrimidin-4-yl)oxy)phenyl)urea], the GI50 in test [2] was 30 nM; in [3], 1010 nM; in [4], 287 nM; in [5] it was 1090 nM; in test [6], 6050 nM; in test [7], 37 nM. For the same compound, the 50% growth inhibitory concentration (GI50) in [8] is 3830 nM; in test [9] it was 5 nM; in [10] it was 1330 nM.
With `COc1ccc(CNc2cc(Oc3ccc(NC(=O)Nc4ccc(CN5CCNCC5)c(C(F)(F)F)c4)cc3)ncn2)cc1` [Example 180, 1-{4-[6-(4-methoxy-benzylamino)-pyrimidin-4-yloxy]-phenyl}-3-(4-piperazin-1-ylmethyl-3-trifluoromethyl-phenyl)-urea], the GI50 in test [2] amounted to 315 nM; in [3], 2850 nM; in [4], 330 nM; in test [5], 22 nM; in test [6] it was 9010 nM; in [7], 3 nM. Also, the GI50 in [8] was 331 nM; in [9], 112 nM; in test [10], 39 nM; in [11], 1720 nM.
Consider `Cc1ccc(NC(=O)Nc2ccc(Oc3cc(N[C@H](C)CNC(=O)OC(C)(C)C)ncn3)cc2)cc1C(F)(F)F` [Example 112, (R)-(2-((6-(4-(3-(4-methyl-3-(trifluoromethyl)phenyl)ureido)phenoxy)pyrimidin-4-yl)amino)propyl)aminotert-butyl Formate], for which the GI50 amounted to 51 nM in [2]; 886 nM in test [3]; 1070 nM in test [4]; 599 nM in test [5]; 4120 nM in test [6]; 58 nM in test [7]. For the same compound, the results for the GI50 in [8], in test [9] and in test [10] were 3820 nM, 23 nM and 390 nM, respectively.
In the case of `Cc1ccc(NC(=O)Nc2ccc(Oc3cc(N4CCNCC4C)ncn3)cc2)cc1C(F)(F)F` (stereo not drawn) [Example 104, 1-{4-[6-(2-methyl-piperazin-1-yl)-pyrimidin-4-yloxy]-phenyl}-3-(4-methyl-3-trifluoromethyl-phenyl)-urea], the GI50 in [2] was 173 nM; in test [3], 5130 nM; in [4] it was 1800 nM; in test [5], 670 nM; in test [6] it was 8480 nM; in test [7], 290 nM. Further, the GI50 was determined as 3620 nM in test [8], 14 nM in test [9] and 2890 nM in test [10].
Turning to `Cc1ccc(NC(=O)Nc2ccc(Oc3cc(NC4CCN(C(=O)OC(C)(C)C)CC4)ncn3)cc2)cc1C(F)(F)F` [Example 99, 4-(6-{4-[3-(4-methyl-3-trifluoromethyl-phenyl)-ureido]-phenoxy}-pyrimidin-4-ylamino)-piperidin-1-tert-butyl Formate], the 50% growth inhibitory concentration (GI50) is 277 nM in test [2]; 990 nM in [3]; 340 nM in test [4]; 66 nM in [5]; > 10000 nM in [6]; 17 nM in test [7]. The GI50 was 4600 nM in test [8], 14 nM in test [9] and 202 nM in [10].
Consider `Cc1ccc(NC(=O)Nc2ccc(Oc3cc(N[C@H](C)CN)ncn3)cc2)cc1C(F)(F)F` [Example 113, (R)-1-(4-((6-((1-aminoprop-2-yl)amino)pyrimidin-4-yl)oxy)phenyl)-3-(4-methyl-3-(trifluoromethyl)phenyl)urea], for which the GI50 in test [2] was 170 nM; in test [3], 8540 nM; in test [4], 3220 nM; in test [5], 638 nM; in [6] it was > 10000 nM; in [7], 259 nM. Besides, the GI50 is > 10000 nM in test [8], 86 nM in [9] and 1260 nM in test [10].
